Assay [1] deals with T1, Thyroid hormone receptor beta (Homo sapiens, UniProt P10828).
T1 sequence (P10828 whole entry): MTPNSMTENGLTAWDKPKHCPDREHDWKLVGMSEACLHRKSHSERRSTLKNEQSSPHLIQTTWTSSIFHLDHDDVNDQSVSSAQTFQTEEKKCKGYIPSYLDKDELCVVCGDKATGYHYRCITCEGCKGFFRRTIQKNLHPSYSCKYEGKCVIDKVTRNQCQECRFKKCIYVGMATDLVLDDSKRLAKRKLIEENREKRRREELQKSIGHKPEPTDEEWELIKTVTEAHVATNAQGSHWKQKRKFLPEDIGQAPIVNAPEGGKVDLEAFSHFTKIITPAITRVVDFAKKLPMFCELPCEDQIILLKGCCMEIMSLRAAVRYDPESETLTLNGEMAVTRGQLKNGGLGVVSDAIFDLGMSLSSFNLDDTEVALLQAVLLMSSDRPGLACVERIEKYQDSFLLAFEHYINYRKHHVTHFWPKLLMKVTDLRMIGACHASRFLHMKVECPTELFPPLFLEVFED
The assay is described as follows: Binding affinity to human thyroid hormone receptor beta 1.

The target in assay [2] is Thyroid hormone receptor (Homo sapiens) (UniProt P10827+P10828). The assay can be described thus: Selectivity for human thyroid hormone receptor beta 1 over thyroid hormone receptor alpha 1. Format: protein-complex assay.
The target in assay [3] is T2, Thyroid hormone receptor alpha (Homo sapiens, UniProt P10827).
T2 sequence (P10827 whole entry): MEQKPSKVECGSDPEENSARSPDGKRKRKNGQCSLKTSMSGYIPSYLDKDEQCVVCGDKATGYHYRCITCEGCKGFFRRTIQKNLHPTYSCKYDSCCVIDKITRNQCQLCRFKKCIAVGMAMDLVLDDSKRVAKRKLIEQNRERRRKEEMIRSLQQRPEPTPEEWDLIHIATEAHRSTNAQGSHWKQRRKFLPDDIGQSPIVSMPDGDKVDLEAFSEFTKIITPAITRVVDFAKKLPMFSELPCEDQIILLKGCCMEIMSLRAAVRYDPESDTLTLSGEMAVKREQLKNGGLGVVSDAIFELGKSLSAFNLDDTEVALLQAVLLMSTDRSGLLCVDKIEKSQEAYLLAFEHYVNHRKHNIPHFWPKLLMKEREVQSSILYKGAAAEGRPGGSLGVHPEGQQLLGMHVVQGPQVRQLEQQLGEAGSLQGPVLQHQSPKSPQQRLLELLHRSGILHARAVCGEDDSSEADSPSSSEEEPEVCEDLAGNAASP
The assay is described as follows: Binding affinity to human thyroid hormone receptor alpha 1.

What is called IC50 is the concentration that gives 50% inhibition. A higher IC50 goes with lower potency. Consider `CCCC(CCC)C(=O)Nc1ccc(Oc2c(Cl)cc(CC(=O)O)cc2Cl)cc1Br`, for which the IC50 in assay [1] was 45 nM; in assay [3], 1200 nM. In addition, the Ratio IC50 in assay [2] was 16.
For the compound `CCC(=O)Nc1ccc(Oc2c(Cl)cc(CC(=O)O)cc2Cl)cc1Br`, the IC50 in assay [1] was 140 nM; in assay [3], 3300 nM. Also, in assay [2], the Ratio IC50 was 14.
The corresponding values for `CC(C)C(=O)Nc1ccc(Oc2c(Cl)cc(CC(=O)O)cc2Cl)cc1Br` are 18 nM, 630 nM and 21.
The corresponding values for `CCC(C)C(=O)Nc1ccc(Oc2c(Cl)cc(CC(=O)O)cc2Cl)cc1Br` (stereo not drawn) are 4.3 nM, 240 nM and 33.
The matching figures for `CCCC(C)C(=O)Nc1ccc(Oc2c(Cl)cc(CC(=O)O)cc2Cl)cc1Br` (stereo not drawn): 47 nM, 1300 nM and 16.
Consider `CCC(CC)C(=O)Nc1ccc(Oc2c(Cl)cc(CC(=O)O)cc2Cl)cc1Br`, for which the half-inhibitory concentration (IC50) in assay [1] stood at 16 nM; in assay [3], 610 nM. Moreover, the Ratio IC50 in assay [2] amounted to 22.
